Measured values reported in ChEMBL document CHEMBL4507304, “Data for DCP probe TP-021” (2021).

Columns and labels:
[1] = target: Bone morphogenetic protein receptor type-1B (Homo sapiens) (UniProt O00238); conditions: Compound concentration 1000.0 nM
[2] = target: Tyrosine-protein kinase JAK2 (Homo sapiens) (UniProt O60674); conditions: Compound concentration 1000.0 nM
[3] = target: Activin receptor type-2B (Homo sapiens) (UniProt Q13705); conditions: Compound concentration 1000.0 nM
[4] = test system: eIF-2-alpha kinase GCN2 (Homo sapiens), Q9P2K8 [S808G]; conditions: Compound concentration 1000.0 nM
[5] = target: Mitogen-activated protein kinase kinase kinase kinase 5 (Homo sapiens) (UniProt Q9Y4K4); conditions: Compound concentration 1000.0 nM
[6] = target: cGMP-dependent protein kinase 1 (Homo sapiens) (UniProt Q13976); conditions: Compound concentration 1000.0 nM
[7] = target: Tyrosine-protein kinase receptor UFO (Homo sapiens) (UniProt P30530); conditions: Compound concentration 1000.0 nM
Chain of Tyrosine-protein kinase receptor UFO (Homo sapiens) (P30530 whole entry): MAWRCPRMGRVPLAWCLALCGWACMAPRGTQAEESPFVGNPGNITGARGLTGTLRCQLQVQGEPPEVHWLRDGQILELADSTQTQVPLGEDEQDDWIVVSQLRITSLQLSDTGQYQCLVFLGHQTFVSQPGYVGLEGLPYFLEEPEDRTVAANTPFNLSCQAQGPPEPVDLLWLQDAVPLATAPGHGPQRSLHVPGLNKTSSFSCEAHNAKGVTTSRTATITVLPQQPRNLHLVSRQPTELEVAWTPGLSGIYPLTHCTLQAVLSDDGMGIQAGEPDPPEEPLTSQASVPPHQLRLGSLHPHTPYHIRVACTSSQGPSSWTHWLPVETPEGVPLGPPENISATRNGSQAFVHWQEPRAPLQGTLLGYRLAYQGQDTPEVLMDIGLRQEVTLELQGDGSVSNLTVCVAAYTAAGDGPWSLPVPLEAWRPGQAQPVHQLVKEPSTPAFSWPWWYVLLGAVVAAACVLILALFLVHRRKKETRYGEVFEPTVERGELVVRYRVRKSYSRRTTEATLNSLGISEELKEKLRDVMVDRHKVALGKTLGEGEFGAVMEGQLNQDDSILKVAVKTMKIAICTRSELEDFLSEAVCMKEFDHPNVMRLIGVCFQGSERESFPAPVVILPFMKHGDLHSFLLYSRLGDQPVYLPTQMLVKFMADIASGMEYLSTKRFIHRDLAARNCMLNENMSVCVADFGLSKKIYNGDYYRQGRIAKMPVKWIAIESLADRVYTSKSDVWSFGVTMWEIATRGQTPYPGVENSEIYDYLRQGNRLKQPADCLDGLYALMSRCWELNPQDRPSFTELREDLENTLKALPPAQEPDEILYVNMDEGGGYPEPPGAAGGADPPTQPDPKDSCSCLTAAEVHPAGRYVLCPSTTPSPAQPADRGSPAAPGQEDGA

[8] = target: Serine/threonine-protein kinase PAK 6 (Homo sapiens) (UniProt Q9NQU5); conditions: Compound concentration 1000.0 nM
[9] = target: Cyclin-dependent kinase 4 (Homo sapiens) (UniProt P11802); conditions: Compound concentration 1000.0 nM
[10] = target: Alpha-2B adrenergic receptor (Homo sapiens) (UniProt P18089); conditions: Compound concentration 10.0 uM
[11] = target: Serine/threonine-protein kinase PAK 4 (Homo sapiens) (UniProt O96013); conditions: Compound concentration 1000.0 nM
[12] = target: Cyclin-dependent kinase 5 (Homo sapiens) (UniProt Q00535); conditions: Compound concentration 1000.0 nM
[13] = target: Cyclin-dependent kinase 11B (Homo sapiens) (UniProt P21127); conditions: Compound concentration 1000.0 nM
[14] = target: Phosphatidylinositol 4-phosphate 3-kinase C2 domain-containing subunit beta (Homo sapiens) (UniProt O00750); conditions: Compound concentration 1000.0 nM
[15] = target: Receptor-type tyrosine-protein kinase FLT3 (Homo sapiens) (UniProt P36888); conditions: Compound concentration 1000.0 nM
[16] = target: Myosin-IIIb (Homo sapiens) (UniProt Q8WXR4); conditions: Compound concentration 1000.0 nM
[17] = target: Serine/threonine-protein kinase Chk1 (Homo sapiens) (UniProt O14757); conditions: Compound concentration 1000.0 nM
[18] = target: Interleukin-1 receptor-associated kinase 4 (Homo sapiens) (UniProt Q9NWZ3); conditions: Compound concentration 1000.0 nM
[19] = target: Beta-2 adrenergic receptor (Homo sapiens) (UniProt P07550); conditions: Compound concentration 10.0 uM
[20] = target: Mitogen-activated protein kinase kinase kinase 10 (Homo sapiens) (UniProt Q02779); conditions: Compound concentration 1000.0 nM
[21] = target: Dual specificity mitogen-activated protein kinase kinase 2 (Homo sapiens) (UniProt P36507); conditions: Compound concentration 1000.0 nM
[22] = target: 5-hydroxytryptamine receptor 2A (Homo sapiens) (UniProt P28223); conditions: Compound concentration 10.0 uM
[23] = target: Dual specificity protein kinase CLK4 (Homo sapiens) (UniProt Q9HAZ1); conditions: Compound concentration 1000.0 nM
[24] = test system: Phosphatidylinositol 4,5-bisphosphate 3-kinase catalytic subunit alpha isoform (Homo sapiens), P42336 [I800L]; conditions: Compound concentration 1000.0 nM
Chain of Phosphatidylinositol 4,5-bisphosphate 3-kinase catalytic subunit alpha isoform (Homo sapiens), P42336 [I800L] (P42336 whole entry I800L, canonical isoform): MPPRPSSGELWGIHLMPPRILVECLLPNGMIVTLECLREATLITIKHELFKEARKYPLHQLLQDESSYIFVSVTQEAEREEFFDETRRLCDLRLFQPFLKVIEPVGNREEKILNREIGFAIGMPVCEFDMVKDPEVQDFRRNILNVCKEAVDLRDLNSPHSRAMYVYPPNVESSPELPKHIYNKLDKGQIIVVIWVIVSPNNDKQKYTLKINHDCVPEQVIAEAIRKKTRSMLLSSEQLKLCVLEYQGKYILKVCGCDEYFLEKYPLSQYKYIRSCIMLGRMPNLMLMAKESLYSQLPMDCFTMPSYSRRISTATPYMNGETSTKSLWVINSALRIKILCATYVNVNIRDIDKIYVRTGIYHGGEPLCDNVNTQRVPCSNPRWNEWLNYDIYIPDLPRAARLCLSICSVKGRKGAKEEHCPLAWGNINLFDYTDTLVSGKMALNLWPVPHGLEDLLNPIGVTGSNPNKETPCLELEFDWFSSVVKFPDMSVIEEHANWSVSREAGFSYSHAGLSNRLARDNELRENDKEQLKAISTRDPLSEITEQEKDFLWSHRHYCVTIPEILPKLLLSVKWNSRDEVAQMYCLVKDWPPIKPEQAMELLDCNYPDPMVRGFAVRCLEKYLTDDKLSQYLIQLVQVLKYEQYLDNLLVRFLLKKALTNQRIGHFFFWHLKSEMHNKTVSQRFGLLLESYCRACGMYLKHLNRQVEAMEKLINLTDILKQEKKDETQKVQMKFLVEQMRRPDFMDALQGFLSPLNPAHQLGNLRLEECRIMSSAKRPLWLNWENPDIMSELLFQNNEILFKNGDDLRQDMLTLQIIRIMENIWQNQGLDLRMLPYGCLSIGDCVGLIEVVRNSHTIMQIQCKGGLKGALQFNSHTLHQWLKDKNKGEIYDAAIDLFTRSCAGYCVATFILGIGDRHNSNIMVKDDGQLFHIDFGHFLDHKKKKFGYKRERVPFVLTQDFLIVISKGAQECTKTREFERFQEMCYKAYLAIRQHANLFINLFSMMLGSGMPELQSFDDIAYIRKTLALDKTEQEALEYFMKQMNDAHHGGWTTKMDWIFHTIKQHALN

[25] = target: Ribosomal protein S6 kinase alpha-4 (Homo sapiens) (UniProt O75676); conditions: Compound concentration 1000.0 nM
[26] = target: Tyrosine-protein kinase Fgr (Homo sapiens) (UniProt P09769); conditions: Compound concentration 1000.0 nM
[27] = target: Bone morphogenetic protein receptor type-2 (Homo sapiens) (UniProt Q13873); conditions: Compound concentration 1000.0 nM
[28] = test system: Tyrosine-protein kinase ABL1 (Homo sapiens), P00519 [Q252H]; conditions: Compound concentration 1000.0 nM
[29] = test system: Tyrosine-protein kinase ABL1 (Homo sapiens), P00519 [T315I]; conditions: Compound concentration 1000.0 nM
[30] = target: Tyrosine-protein kinase FRK (Homo sapiens) (UniProt P42685); conditions: Compound concentration 1000.0 nM
[31] = target: Protein-tyrosine kinase 6 (Homo sapiens) (UniProt Q13882); conditions: Compound concentration 1000.0 nM
Chain of Protein-tyrosine kinase 6 (Homo sapiens) (Q13882 whole entry, looked up): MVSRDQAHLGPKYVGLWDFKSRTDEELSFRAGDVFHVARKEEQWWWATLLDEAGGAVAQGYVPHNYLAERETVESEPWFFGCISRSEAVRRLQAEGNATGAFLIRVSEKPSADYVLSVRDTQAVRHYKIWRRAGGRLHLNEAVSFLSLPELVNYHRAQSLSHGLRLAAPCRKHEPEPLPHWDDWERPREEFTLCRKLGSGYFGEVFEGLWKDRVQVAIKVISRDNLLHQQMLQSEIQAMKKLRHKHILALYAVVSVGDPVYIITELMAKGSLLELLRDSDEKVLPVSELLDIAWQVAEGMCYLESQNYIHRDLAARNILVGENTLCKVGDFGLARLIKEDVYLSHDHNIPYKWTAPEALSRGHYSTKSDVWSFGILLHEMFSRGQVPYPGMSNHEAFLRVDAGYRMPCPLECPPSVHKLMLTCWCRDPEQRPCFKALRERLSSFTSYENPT

[32] = target: Citron Rho-interacting kinase (Homo sapiens) (UniProt O14578); conditions: Compound concentration 1000.0 nM
[33] = target: Serine/threonine-protein kinase SIK2 (Homo sapiens) (UniProt Q9H0K1); conditions: Compound concentration 1000.0 nM
Chain of Serine/threonine-protein kinase SIK2 (Homo sapiens) (Q9H0K1 whole entry, looked up): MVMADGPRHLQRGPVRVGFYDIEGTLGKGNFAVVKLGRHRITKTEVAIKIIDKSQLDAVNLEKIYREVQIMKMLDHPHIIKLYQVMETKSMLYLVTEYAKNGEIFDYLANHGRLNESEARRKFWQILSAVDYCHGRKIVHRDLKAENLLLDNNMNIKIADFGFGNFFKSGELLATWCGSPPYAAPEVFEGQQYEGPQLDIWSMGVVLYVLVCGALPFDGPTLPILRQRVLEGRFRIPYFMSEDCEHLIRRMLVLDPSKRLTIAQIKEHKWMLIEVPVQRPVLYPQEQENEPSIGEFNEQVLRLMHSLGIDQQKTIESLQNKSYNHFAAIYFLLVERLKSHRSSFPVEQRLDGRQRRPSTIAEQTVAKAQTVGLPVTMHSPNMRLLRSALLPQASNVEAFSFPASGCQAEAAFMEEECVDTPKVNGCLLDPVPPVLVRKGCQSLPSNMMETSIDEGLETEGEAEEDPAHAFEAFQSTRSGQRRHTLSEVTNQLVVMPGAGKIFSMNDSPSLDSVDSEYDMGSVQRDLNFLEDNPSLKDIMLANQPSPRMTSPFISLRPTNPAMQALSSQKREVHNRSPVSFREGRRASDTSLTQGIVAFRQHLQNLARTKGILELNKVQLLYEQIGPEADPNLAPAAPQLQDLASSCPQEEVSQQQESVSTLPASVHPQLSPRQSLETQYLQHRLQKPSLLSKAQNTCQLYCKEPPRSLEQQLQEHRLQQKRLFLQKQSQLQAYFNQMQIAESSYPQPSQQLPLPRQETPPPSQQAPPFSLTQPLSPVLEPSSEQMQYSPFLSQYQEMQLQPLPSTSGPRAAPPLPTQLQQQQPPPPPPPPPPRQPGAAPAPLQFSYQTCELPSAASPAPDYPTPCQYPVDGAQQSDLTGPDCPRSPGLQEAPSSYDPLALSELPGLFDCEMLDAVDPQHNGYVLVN

[34] = target: Microtubule-associated serine/threonine-protein kinase 1 (Homo sapiens) (UniProt Q9Y2H9); conditions: Compound concentration 1000.0 nM
[35] = target: RAC-beta serine/threonine-protein kinase (Homo sapiens) (UniProt P31751); conditions: Compound concentration 1000.0 nM
[36] = target: Alpha-2A adrenergic receptor (Homo sapiens) (UniProt P08913); conditions: Compound concentration 10.0 uM
[37] = target: Atypical kinase COQ8A, mitochondrial (Homo sapiens) (UniProt Q8NI60); conditions: Compound concentration 1000.0 nM
[38] = target: Mitogen-activated protein kinase kinase kinase 6 (Homo sapiens) (UniProt O95382); conditions: Compound concentration 1000.0 nM
[39] = target: Cyclin-dependent kinase-like 5 (Homo sapiens) (UniProt O76039); conditions: Compound concentration 1000.0 nM
[40] = target: cAMP-dependent protein kinase catalytic subunit beta (Homo sapiens) (UniProt P22694); conditions: Compound concentration 1000.0 nM
[41] = target: Dual specificity protein kinase CLK3 (Homo sapiens) (UniProt P49761); conditions: Compound concentration 1000.0 nM
[42] = target: Macrophage colony-stimulating factor 1 receptor (Homo sapiens) (UniProt P07333); conditions: Compound concentration 1000.0 nM
Chain of Macrophage colony-stimulating factor 1 receptor (Homo sapiens) (P07333 whole entry): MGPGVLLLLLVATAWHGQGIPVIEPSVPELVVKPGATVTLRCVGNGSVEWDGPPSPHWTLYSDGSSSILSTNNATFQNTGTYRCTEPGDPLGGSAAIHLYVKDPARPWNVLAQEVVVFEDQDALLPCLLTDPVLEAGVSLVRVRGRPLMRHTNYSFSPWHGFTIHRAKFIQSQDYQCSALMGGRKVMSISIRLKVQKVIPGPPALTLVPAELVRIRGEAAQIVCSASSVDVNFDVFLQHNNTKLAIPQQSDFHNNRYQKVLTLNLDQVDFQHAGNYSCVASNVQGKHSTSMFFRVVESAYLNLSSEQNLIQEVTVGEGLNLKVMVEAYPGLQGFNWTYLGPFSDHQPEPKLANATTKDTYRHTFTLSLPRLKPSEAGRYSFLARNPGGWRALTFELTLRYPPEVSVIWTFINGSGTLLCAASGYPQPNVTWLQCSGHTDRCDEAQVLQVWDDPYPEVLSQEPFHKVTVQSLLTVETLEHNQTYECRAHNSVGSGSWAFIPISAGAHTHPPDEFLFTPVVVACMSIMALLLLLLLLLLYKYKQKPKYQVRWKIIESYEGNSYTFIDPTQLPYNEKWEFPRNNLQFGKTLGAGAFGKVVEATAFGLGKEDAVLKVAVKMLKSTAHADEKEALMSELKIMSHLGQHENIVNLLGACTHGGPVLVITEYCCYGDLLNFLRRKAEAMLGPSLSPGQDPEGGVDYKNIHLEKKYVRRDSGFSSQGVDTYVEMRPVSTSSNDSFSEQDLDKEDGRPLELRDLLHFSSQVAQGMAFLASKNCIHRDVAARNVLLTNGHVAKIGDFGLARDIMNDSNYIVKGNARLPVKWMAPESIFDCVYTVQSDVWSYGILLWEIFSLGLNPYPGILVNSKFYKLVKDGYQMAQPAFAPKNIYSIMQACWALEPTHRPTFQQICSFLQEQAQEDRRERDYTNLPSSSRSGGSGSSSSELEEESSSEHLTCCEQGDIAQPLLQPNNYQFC

[43] = target: Tyrosine-protein kinase Tec (Homo sapiens) (UniProt P42680); conditions: Compound concentration 1000.0 nM
[44] = target: Serine/threonine-protein kinase 32C (Homo sapiens) (UniProt Q86UX6); conditions: Compound concentration 1000.0 nM
[45] = target: Mitogen-activated protein kinase kinase kinase 3 (Homo sapiens) (UniProt Q99759); conditions: Compound concentration 1000.0 nM
Chain of Mitogen-activated protein kinase kinase kinase 3 (Homo sapiens) (Q99759 whole entry): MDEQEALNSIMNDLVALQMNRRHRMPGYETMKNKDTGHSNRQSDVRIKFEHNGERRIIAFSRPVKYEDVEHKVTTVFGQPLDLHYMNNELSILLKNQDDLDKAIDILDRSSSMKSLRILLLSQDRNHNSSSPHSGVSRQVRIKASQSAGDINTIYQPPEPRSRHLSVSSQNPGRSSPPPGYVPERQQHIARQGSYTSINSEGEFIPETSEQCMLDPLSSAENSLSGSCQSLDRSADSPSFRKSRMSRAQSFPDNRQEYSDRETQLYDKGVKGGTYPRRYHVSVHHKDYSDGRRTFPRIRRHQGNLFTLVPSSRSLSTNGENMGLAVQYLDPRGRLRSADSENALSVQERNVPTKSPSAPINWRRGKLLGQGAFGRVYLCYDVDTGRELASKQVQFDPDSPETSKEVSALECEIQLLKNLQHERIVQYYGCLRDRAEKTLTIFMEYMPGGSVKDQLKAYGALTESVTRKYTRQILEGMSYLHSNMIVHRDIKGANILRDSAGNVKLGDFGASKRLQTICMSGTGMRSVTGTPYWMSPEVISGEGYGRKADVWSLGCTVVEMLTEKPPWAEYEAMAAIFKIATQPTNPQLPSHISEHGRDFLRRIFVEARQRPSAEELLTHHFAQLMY

N#Cc1ccc(Nc2ccc3[nH]c(=O)[nH]c3c2)c(Cl)c1
inactive: residual activity [1] 100% | residual activity [2] 100% | residual activity [3] 81% | residual activity [4] 93% | residual activity [5] 77% | residual activity [6] 80% | residual activity [7] 100% | residual activity [8] 85% | residual activity [9] 100% | inhibition [10] 13.1% | residual activity [11] 92% | residual activity [12] 100% | residual activity [13] 100% | residual activity [14] 99% | residual activity [15] 97% | residual activity [16] 100% | residual activity [17] 98% | residual activity [18] 100% | inhibition [19] -0.51% | residual activity [20] 99% | residual activity [21] 93% | inhibition [22] 5.37% | residual activity [23] 98% | residual activity [24] 77% | residual activity [25] 70% | residual activity [26] 100% | residual activity [27] 91% | residual activity [28] 100% | residual activity [29] 93% | residual activity [30] 73% | residual activity [31] 100% | residual activity [32] 100% | residual activity [33] 100% | residual activity [34] 100% | residual activity [35] 89% | inhibition [36] 2.09% | residual activity [37] 100% | residual activity [38] 100% | residual activity [39] 100% | residual activity [40] 96% | residual activity [41] 96% | residual activity [42] 97% | residual activity [43] 96% | residual activity [44] 82% | residual activity [45] 84%

O=C1CCc2cc(Nc3cc(OC4CCOCC4)c([N+](=O)[O-])cc3Cl)ccc2N1
inactive: residual activity [1] 87% | residual activity [2] 100% | residual activity [3] 89% | residual activity [4] 85% | residual activity [5] 87% | residual activity [6] 89% | residual activity [7] 96% | residual activity [8] 86% | residual activity [9] 81% | inhibition [10] -0.04% | residual activity [11] 100% | residual activity [12] 97% | residual activity [13] 98% | residual activity [14] 89% | residual activity [15] 99% | residual activity [16] 97% | residual activity [17] 95% | residual activity [18] 100% | inhibition [19] -1.73% | residual activity [20] 94% | residual activity [21] 73% | inhibition [22] 3.21% | residual activity [23] 88% | residual activity [24] 63% | residual activity [25] 65% | residual activity [26] 100% | residual activity [27] 92% | residual activity [28] 100% | residual activity [29] 80% | residual activity [30] 73% | residual activity [31] 100% | residual activity [32] 100% | residual activity [33] 100% | residual activity [34] 100% | residual activity [35] 82% | inhibition [36] 4.66% | residual activity [37] 100% | residual activity [38] 91% | residual activity [39] 99% | residual activity [40] 100% | residual activity [41] 100% | residual activity [42] 96% | residual activity [43] 82% | residual activity [44] 83% | residual activity [45] 95%
